Measured values reported in patent US12655169B2, “Arabinose and preparation and use thereof” (THOMSON BIOTECH (XIAMEN) PTE. LTD., priority 2022, dated 2026).
Read-outs that look alike come from different tables or passages of the source.

What was measured:
Type in all cases: physicochemical
[1] = Flowability test (particle and powder characteristic analyzer, FT-102D)
Text: (§1) Example 4. Particle Size Parameters and Powder Characteristics (Quantity Distribution) of L-Arabinose
Example 13. Performance Test Results for the Granules of the Present Disclosure

[2] = Particle size parameter test (BT-2900 image particle size analysis system); details: quantity distribution, image particle size analysis
Text: as §1

[3] = Granularity distribution of sample (standard sieve); details: for Granularity distribution of sample (standard sieve) 20-80 mesh / Granularity distribution of sample (standard sieve) <80 mesh / Granularity distribution of sample (standard sieve) >20 mesh: Example 8 samples, seed crystal specification and fed-batch time varied
Procedure: 1 kg of L-arabinose starting material was dissolved in 1.2 kg of purified water at 60° C. After the solution was completely clear, 1 g of activated carbon ([…] of the L-arabinose) was added. The mixture was incubated at 60° C. for 30 min and then subjected to suction filtration under vacuum successively through 25 μm and 0.45 μm filter membranes to remove the activated carbon, and a clear filtered sugar liquid (about 1800 mL in volume) was obtained. About 800 mL of the clear filtered sugar liquid was added to a three-necked flask, and stirred and evaporated under reduced pressure in a water bath set at a temperature of 62° C. until the sugar degree reached 58-60% Brix. A proper amount of L-arabinose was added as seed crystals (as shown in Table 8-1 below, seed crystal with different specifications was selected: 40-60 mesh, 16.5 g; 60-80 mesh, 6 g; 80-100 mesh, 1.5 g). The mixture was stirred (double-layered type of stirring, with two-half-crescent type for the lower layer and three-bladed propeller type for the upper layer) at a rate of 90-110 rpm until the seed crystal was completely dispersed. Then the sugar liquid was added at a rate of 50-100 mL/h in a fed-batch manner for a time period of 12/18 h. After the fed-batch addition was completed, the concentrating was continued for 1-2 h. It was about 14 h from the time the seed crystal was added to the time of discharging.
According to the results shown in Table 8-1, the specific surface area of the seed crystal of 80-100 mesh is relatively […] compared with that of the seed crystal of other specifications (as shown in Table 8-2), but the particle size distribution of the sample obtained by experiment is relatively uniform: the proportion of 20-80 mesh is more than 89.7%, and the maximum proportion is more than 90%, which fully complies with the requirements of the existing pharmacopoeia (Chinese pharmacopoeia (2020)) for granules: granules cannot pass through a No. 1 sieve (10 mesh, 2000 μm) and the total quantity of granules which can pass through a No. 5 sieve (80 mesh, pore size of […]) should not exceed 15%.

[4] = listed as Example 10 sample of batch 1ª
[5] = post-centrifugation sampling-manual material spreading and drying oven drying

| Compound | Bulk density [1] | Carr flowability index [1] | Compressibility [1] | Floodability index [1] | Flowability (Hausner ratio) [1] | Hausner ratio [1] | Tap density [1] | Average particle size [2] | D10 [2] | D50 [2] | D90 [2] | Angle of repose [1] | Granularity distribution of sample (standard sieve) 20-80 mesh [3] | Granularity distribution of sample (standard sieve) <80 mesh [3] | Granularity distribution of sample (standard sieve) >20 mesh [3] | further results |
| --- | --- | --- | --- | --- | --- | --- | --- | --- | --- | --- | --- | --- | --- | --- | --- | --- |
| O[C@@H]1[C@@H](O)[C@@H](O)CO[C@H]1O [Commercial product (T1)] | 0.55 g/mL | 79 | 40.2% | 75 | Very poor | 1.7 | 0.93 g/mL | 75 μm | 27 μm | 63 μm | 137 μm |  |  |  |  | Angle of repose ([1]; in ° (unit assumed)): 51.05 |
| O[C@@H]1[C@@H](O)[C@@H](O)CO[C@H]1O [Commercial product (Y1)] | 0.5 g/mL | 79 | 41.4% | 75 | Very poor | 1.7 | 0.85 g/mL | 33 μm | 11 μm | 30 μm | 63 μm |  |  |  |  | Angle of repose ([1]; in ° (unit assumed)): 51.73 |
| O=C[C@H](O)[C@@H](O)[C@@H](O)CO [Example 2, L-arabinose] | 0.6 | 102.5 | 20.6 | 75.0 | Good | 1.3 | 0.76 | 189 μm | 82 μm | 182 μm | 299 μm | 38.95 | 61 | 1 | 38 |  |
| O=C[C@H](O)[C@@H](O)[C@@H](O)CO [Example 3, L-arabinose] | 0.56 | 99 | 24.3 | 75.0 | Good | 1.2 | 0.74 | 125 μm | 43 μm | 109 μm | 232 μm | 38.76 | 81.6 | 1.5 | 16.9 |  |
| O=C[C@H](O)[C@@H](O)[C@@H](O)CO [Example 10 Sample of batch 1^b, L-arabinose] |  |  |  |  |  |  |  | 182 μm | 78 μm | 174 μm | 296 μm |  |  |  |  |  |
| O=C[C@H](O)[C@@H](O)[C@@H](O)CO [Example 10 Sample of batch 2^b, L-arabinose] |  |  |  |  |  |  |  | 189 μm | 79 μm | 168 μm | 331 μm |  |  |  |  |  |
| O=C[C@H](O)[C@@H](O)[C@@H](O)CO [Example 10 batch 1, L-arabinose] | 0.7 |  | 17.1 | 75.0 | Good | 1.2 | 0.85 |  |  |  |  | 40.01 |  |  |  | Average particle size [2, 4]: 134.5 μm; D10 [2, 4]: 48.4 μm; D50 [2, 4]: 125.1 μm; D90 [2, 4]: 230.6 μm; 20-80 mesh proportion of sample [3, 5]: 93.0%; 20-80 mesh proportion of sample ([3]; screw feeding-back-mixing bed drying): 66.4% |
| O=C[C@H](O)[C@@H](O)[C@@H](O)CO [Example 14, L-arabinose] |  |  |  |  |  |  |  |  |  |  |  |  |  |  |  | 20-80 mesh proportion of sample [3, 5]: 94.3%; 20-80 mesh proportion of sample ([3]; star valve unloading-back-mixing bed drying): 89% |
| O[C@@H]1[C@@H](O)[C@@H](O)CO[C@H]1O [No. 5] |  |  |  |  |  |  |  |  |  |  |  |  | 89.7% | 3% | 7.3% |  |
